Here are results for two molecules from patent US20260216239A1 (Arizona Board of Regents on Behalf of the University of …, priority 2020, published 2026).

The structures appear in SMILES notation. Entries after “also recorded” stand apart in the source; their conditions may differ.

For one test, the system named is Echis leucogaster venom. The experiment in a line: Thrombelastography in human plasma of venom procoagulant activity after isolated exposure of venom to compounds. In kind it is biochemical. As to the method: (§1) Thrombelastographic analyses. The volumes of subsequently described plasmatic and other additives summed to a final volume of 360 μl. Samples were composed of 320 μl of plasma; 16.4 μl of PBS, 20 μl of 200 mM CaCl2), and 3.6 μl of PBS or venom mixture, which were pipetted into a disposable cup in a Thrombelastograph® hemostasis system (Model 5000, Haemonetics Inc., Braintree, MA, USA) at 37° C., and then rapidly mixed by moving the cup up against and then away from the plastic pin five times. The following viscoelastic parameters described previously (see, Nielsen V G (2019) J Thromb Thrombolysis 47, 73-79; Gessner G, et al., (2017) Eur J Pharmacol 815, 33-41; Nielsen V G, Wagner M T, Frank N (2020) Int J Mol Sci 21, 2082; Lazić D, Arsenijević A, Puchta R, Bugarčić ŽD, Rilak A (2016) Dalton Trans 45, 4633; Hanif M, et al., (2017) ChemPlusChem 82, 841-847) were measured: time to maximum rate of thrombus generation (TMRTG): this is the time interval (minutes) observed prior to maximum speed of clot growth; maximum rate of thrombus generation (MRTG): this is the maximum velocity of clot growth observed (dynes/cm^2/second); and total thrombus generation (TTG, dynes/cm^2), the final viscoelastic resistance observed after clot formation.
E. leucogaster. This venom was exposed to 0 or 100 μM CORM-2 in the presence of 0 or 100 μM RuCl3 in PBS for at least 5 minutes at room temperature prior to placement into plasma followed immediately with commencement of thrombelastographic analysis. The final concentration of this venom in plasma was 1 μg/ml.
(§2) Given the aforementioned, the experimental conditions utilized were: 1) V condition—venom in PBS; 2) Ru(II) condition—venom exposed to CORM-2; 3) Ru(III) condition—venom exposed to RuCl3; 4) Ru(II+III) condition—venom exposed to CORM-2 and RuCl3 simultaneously. After the 5 minute period at room temperature, 3.6 μl of one of these solutions was added to the plasma sample in the plastic thrombelastograph cup.
All venom solutions without or with chemical additions in isolation were added as a 1% addition to the plasma mix used in our thrombelastographic system (see, Nielsen, V. G.; et al., Biometals 2016, 29, 913-919; Nielsen, V. G.; Losada, P. A. Basic Clin. Pharmacol. Toxicol. 2017, 120, 207-212; Nielsen, V. G.; Frank, N. J. Thromb. Thrombolysis 2019, 47, 533-539; Nielsen, V. G.; Bazzell, C. M. J. Thromb. Thrombolysis 2017, 43, 203-208; Nielsen, V. G.; Matika, R. W. Hum. Exp. Toxicol. 2017, 36, 727-733; Nielsen, V. G.; et al., Toxins 2018, 10, 322; Nielsen, V. G.; et al., Biometals 2018, 31, 51-59; Nielsen, V. G.; Frank, N. et al., Biometals 2018, 31, 951-959; Nielsen, V. G.; et al., Toxins 2019, 11, 94; Nielsen, V. G.; Frank, N. Hum Exp. Toxicol. 2019, 38, 216-226; Nielsen, V. G. J. Thromb. Thrombolysis 2019, 48, 256-262; Nielsen, V. G.; et al., Blood Coagul. Fibrinolysis 2019, 30, 379-384; Nielsen, V. G. J. Thromb. Thrombolysis 2019, 47, 73-79; Gessner, G.; et al., Eur. J. Pharmacol. 2017, 815, 33-41). […] The thrombelastographic model describes coagulation kinetics with the following three variables: time to maximum thrombus generation (TMRTG, minutes—a measure of time to onset of coagulation), maximum rate of thrombus generation (MRTG, dynes/cm^2/s—a measure of the velocity of clot growth) and total thrombus generation (TTG, dynes/cm^2—a measure of clot strength).

Test [1] has as its system Oxyuranus microlepidotus venom. The description is as above. Conditions: venom 1 μg/ml in plasma; for procoagulant activity of venom: venom exposed ≥5 min in PBS to 100 μM CORM-2, 100 μM RuCl3 or both. In kind it is biochemical. As to the method:
as §1
O. microlepidotus. This venom was exposed to 0 or 100 μM CORM-2 in the presence of 0 or 100 μM RuCl3 in PBS for at least 5 minutes at room temperature prior to placement into plasma followed immediately with commencement of thrombelastographic analysis. The final concentration of this venom in plasma was 1 μg/ml.
as §2
The volumes of subsequently described plasmatic and other additives summed to a final volume of 360 μl. Samples were composed of 320 μl of plasma; 16.4 μl of PBS, 20 μl of 200 mM CaCl2), and 3.6 μl of PBS or venom mixture, which were pipetted into a disposable cup in a Thrombelastograph® hemostasis system (Model 5000, Haemonetics Inc., Braintree, MA, USA) at 37° C., and then rapidly mixed by moving the cup up against and then away from the plastic pin five times. The following viscoelastic parameters described previously (see, Nielsen, V. G. J Thromb Thrombolysis 2019, 47, 73-79; Gessner, G.; et al., Eur J Pharmacol 2017, 815, 33-41; Nielsen, V. G.; Wagner, M. T.; Frank, N. Int J Mol Sci 2020, 21, 2082; Lazid, D.; et al., Dalton Trans 2016, 45, 4633; Hanif, M.; et al., ChemPlusChem 2017, 82, 841-847) were measured: time to maximum rate of thrombus generation (TMRTG): this is the time interval (minutes) observed prior to maximum speed of clot growth; maximum rate of thrombus generation (MRTG): this is the maximum velocity of clot growth observed (dynes/cm2/second); and total thrombus generation (TTG, dynes/cm2), the final viscoelastic resistance observed after clot formation. […]

[2] abbreviates: 100 μM CORM-2, 100 μM RuCl3 or both, venom 1 μg/ml in plasma.
[3] abbreviates: venom exposed ≥5 min in PBS to 100 μM CORM-2, 100 μM RuCl3 or both, venom 1 μg/ml in plasma.
Where [4] appears, read: 100 μM CORM-2, 100 μM RuCl3 or both.
[5] abbreviates: venom exposed 5 min to 100 μM RuCl3 in PBS, venom 1 μg/mL in plasma (Example III).

For the molecule `[C-]#[O+].[C-]#[O+].[C-]#[O+].[C-]#[O+].[C-]#[O+].[C-]#[O+].[Cl][Ru][Cl].[Cl][Ru][Cl]` [CORM-2, tricarbonyldichlororuthenium(II) dimer], the “maximum rate of thrombus generation (MRTG)” value (in the test with Echis leucogaster venom (setting [2]); in test [1] (setting [4])) was “decrease” throughout. The “time to maximum rate of thrombus generation (TMRTG)” value with Echis leucogaster venom (setting [2]) is listed as “increased; also recorded: significant increase”; in test [1] (setting [4]) it was “prolonged; also recorded: significant increase”. The “procoagulant activity of venom” value in the test with Echis leucogaster venom (venom exposed 5 min to 100 μM CORM-2 in PBS, venom 1 μg/mL in plasma (Example III)) is reported as “significantly attenuated”; with Echis leucogaster venom (setting [3]), “significantly decreased; also recorded: procoagulant activity inhibition”; in test [1], “significant decrease; also recorded: procoagulant activity inhibition”. Further, the “total thrombus generation (TTG)” value in test [1] (setting [4]) is reported as “decrease”.
As for `[Cl][Ru]([Cl])[Cl]` [RuCl3, ruthenium(III) chloride], the “maximum rate of thrombus generation (MRTG)” value with Echis leucogaster venom (setting [2]) and with Echis leucogaster venom (setting [5]) was “decrease” throughout. Also, the “time to maximum rate of thrombus generation (TMRTG)” value is given as “increase” with Echis leucogaster venom (setting [2]) and “significant increase” in the test with Echis leucogaster venom (setting [5]). For the same molecule, the “total thrombus generation (TTG)” value with Echis leucogaster venom (setting [5]) is listed as “decrease”. Besides, the “procoagulant activity of venom” value in the test with Echis leucogaster venom (setting [3]) is recorded as “significantly diminished”; in test [1] it was “did not significantly affect”.
